Data reported in patent publication US10940139B2, “Compounds that interact with the Ras superfamily for the treatment of cancers, inflammatory diseases, rasopathies, and fibrotic disease” (Shy Therapeutics LLC, priority 2017, dated 2021).

Biological target: KRas G12D/Q61H double mutant (Homo sapiens (Human), UniProt P01116, G12D/Q61H)
Test: Ras GTP binding domain inhibition assay (labeled GTP)
Details: 20 μM compound; read-out: % Inhibition at 20 μM KRas G12D Q61H
How it was run: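 Inhibition of labeled GTP binding is measured on immobilized His-KRas protein in Tris buffer pH 7.5 with 1 mM MgCl2 and 1 mM DTT.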

Chain of KRas G12D/Q61H double mutant (P01116-2 other isoform, or with tags, fused parts or gaps G12D/Q61H): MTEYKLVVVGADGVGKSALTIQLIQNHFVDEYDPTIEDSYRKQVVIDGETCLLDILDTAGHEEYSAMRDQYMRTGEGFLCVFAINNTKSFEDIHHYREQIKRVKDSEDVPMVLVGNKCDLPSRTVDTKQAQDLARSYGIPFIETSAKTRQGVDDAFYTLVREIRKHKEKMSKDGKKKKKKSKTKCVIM

| SMILES | inhibition at 20 µM |
| --- | --- |
| O=C(c1ccccc1)N1CCCc2c(O)nc(-c3ccccn3)nc21 | 25 to 50% |
| Nc1nc(O)c2scc(C(=O)N3CCN(c4ccccc4)CC3)c2n1 | 25 to 50% |
| Nc1nc(O)c2scc(C(=O)N3CCN(c4ccncc4)CC3)c2n1 | 25 to 50% |
| CC1(N)CCN(C(=O)c2csc3c(O)nc(N)nc23)CC1 | 1 to 25% |
| COCCOCCN(C)C(=O)c1csc2c(O)nc(N)nc12 | 1 to 25% |
| N#Cc1ccc(C2(C(=O)Nc3ccnc(-c4ccccn4)n3)CCCC2)cc1 | 25 to 50% |
| COc1ccc(N2CCN(C(=O)c3csc4c(O)nc(-c5ccccn5)nc34)CC2)cc1 | 25 to 50% |
| O=C(c1csc2c(O)nc(-c3ccccn3)nc12)N1CCN(c2cccc(O)c2)CC1 | 25 to 50% |
| O=C(c1csc2c(O)nc(-c3ccccn3)nc12)N1CCN(c2ccc(O)cc2)CC1 | 25 to 50% |
| O=C(c1csc2c(O)nc(-c3ccccn3)nc12)N1CCN(c2ccc(Cl)cc2)CC1 | 25 to 50% |
| COc1cc(F)ccc1N1CCN(C(=O)c2csc3c(O)nc(-c4ccccn4)nc23)CC1 | 25 to 50% |
| COc1ccc(CN2CCN(C(=O)c3csc4c(O)nc(-c5ccccn5)nc34)CC2)cc1OC | 25 to 50% |
| CC1CN(Cc2ccccc2)CCN1C(=O)c1csc2c(O)nc(-c3ccccn3)nc12 (centres unmarked) | 25 to 50% |
| O=C(c1csc2c(O)nc(-c3ccccn3)nc12)N1CCOC(c2cccc(O)c2)C1 (centres unmarked) | 51 to 75% |
| O=C(c1csc2c(O)nc(-c3ccccn3)nc12)N1CCNC(c2ccccc2)C1 (centres unmarked) | 25 to 50% |
| O=C(c1csc2c(O)nc(-c3ccccn3)nc12)N1CCNC(c2cccc(Cl)c2)C1 (centres unmarked) | 25 to 50% |
| Cc1nccc(-c2nc3cc(F)ccc3c(=O)[nH]2)n1 | 76 to 100% |
| O=C(Nc1nnc(-c2ccccn2)[nH]1)C1CCCN(c2ncccc2C(F)(F)F)C1 (centres unmarked) | 51 to 75% |
| O=C(CCc1nc2ccccc2[nH]1)Nc1nnc(-c2ccccn2)[nH]1 | 51 to 75% |
| Cc1nc(-c2ccccn2)[nH]c(=O)c1CC(=O)NC1CCCCCCC1 | 51 to 75% |
| O=c1[nH]c(-c2cc(OCC(F)F)ccn2)nc2cc(F)ccc12 | 51 to 75% |
| C=CCCOC(C)C(=O)Nc1nnc(-c2ccccn2)[nH]1 (centres unmarked) | 25 to 50% |
| COCC(O)CN1CCC(Nc2nc(-c3ccccn3)nc3c2CCC3)CC1 (centres unmarked) | 25 to 50% |
| COc1ccccc1CC(=O)Nc1nnc(-c2ccccn2)[nH]1 | 25 to 50% |
| Cc1cc(O)nc(-c2ccccn2)n1 | 25 to 50% |
| c1ccc(-c2csc3nc(-c4ccccn4)nc(NCCN4CCOCC4)c23)cc1 | 25 to 50% |

| SMILES | inhibition at 20 µM |
| --- | --- |
| COc1cc(CC(=O)Nc2nnc(-c3ccccn3)[nH]2)cc(OC)c1OC | 25 to 50% |
| O=C(Nc1nnc(-c2ccccn2)[nH]1)c1ccc(Cn2ccccc2=O)o1 | 25 to 50% |
| OC[C@H]1C=C[C@@H](Nc2nc(-c3ccccn3)nc3c2CCC3)C1 | 25 to 50% |
| O=C(Nc1nnc(-c2ccccn2)[nH]1)c1ccc(Cn2cncn2)cc1 | 25 to 50% |
| CCCCN(C(=O)c1nn(-c2ccccc2)nc1C)c1ccccc1 | 25 to 50% |
| Cc1nc(CC(=O)Nc2nnc(-c3ccccn3)[nH]2)cs1 | 25 to 50% |
| O=c1[nH]c(-c2ccccn2)nc2ccccc12 | 25 to 50% |
| O=C(Nc1nnc(-c2ccccn2)[nH]1)c1ccc(N2CCCCC2=O)cc1 | 25 to 50% |
| O=C(CCN1C(=O)CSc2ccccc21)Nc1nnc(-c2ccccn2)[nH]1 | 25 to 50% |
| CC(=O)N1CCC(C(=O)Nc2nnc(-c3ccccn3)[nH]2)CC1 | 25 to 50% |
| O=C(Nc1nnc(-c2ccccn2)[nH]1)C1CCS(=O)(=O)C1 (centres unmarked) | 25 to 50% |
| CC(C)N1CC(C(=O)Nc2nnc(-c3ccccn3)[nH]2)CC1=O (centres unmarked) | 25 to 50% |
| O=C(Nc1nnc(-c2ccccn2)[nH]1)C1CC(c2ccccc2)C1 (centres unmarked) | 25 to 50% |
| Cc1cnn(CCC(=O)Nc2nnc(-c3ccccn3)[nH]2)c1 | 25 to 50% |
| CC(C)CCS(=O)(=O)CC(=O)Nc1nnc(-c2ccccn2)[nH]1 | 25 to 50% |
| O=C(Nc1nnc(-c2ccccn2)[nH]1)C(F)(F)c1ccccc1 | 25 to 50% |
| O=C(CCc1ccccc1F)Nc1nnc(-c2ccccn2)[nH]1 | 25 to 50% |
| FC(F)(F)c1cccc(N2CCN(c3ncnc4sccc34)CC2)c1 | 1 to 25% |
| O=C(Nc1nnc(-c2ccccn2)s1)c1nccc2ccccc12 | 1 to 25% |
| COc1ccc(CCNC(=O)c2cc(S(=O)(=O)N3CCOCC3)ccc2OC)cc1OC | 1 to 25% |
| CN(C)C1CN(C(=O)Nc2nc(-c3cccnc3)cs2)C1 | 1 to 25% |
| COc1cc(C)ccc1OS(=O)(=O)N1CCc2ccccc2C1 | 1 to 25% |
| CC(C)Cc1nc(CN(C)CC(=O)Nc2ccc(Cl)c(S(=O)(=O)N3CCOCC3)c2)no1 | 1 to 25% |
| CCN(CC(=O)Nc1ccccc1OC)Cc1coc(-c2cccs2)n1 | 1 to 25% |
| Cc1cc(C)n2nc(CC(=O)N(Cc3ccc(F)cc3)C3CC3)nc2n1 | 1 to 25% |
| C#Cc1cccc(N(CC(=O)N2CCOCC2)C(=O)c2ccc(COc3ccccc3F)o2)c1 | 1 to 25% |

| SMILES | inhibition at 20 µM |
| --- | --- |
| N#CC1CN(c2nccc(C(F)(F)F)n2)CCN1Cc1ccccc1 (centres unmarked) | 1 to 25% |
| CCN(CC)S(=O)(=O)c1ccc(NCCOC)c(C(=O)NCCC(C)C)c1 | 1 to 25% |
| CN(c1ccccc1)c1ccccc1NCc1nnnn1-c1ccccc1 | 1 to 25% |
| O=C(NCc1ccccn1)c1csc(-c2ccc(Cl)cc2)n1 | 1 to 25% |
| Cc1cccc(Oc2ccc(S(=O)(=O)N3CCCCC3)cc2NCc2cc(C)on2)c1 | 1 to 25% |
| N#Cc1ccccc1CN1CCN(c2cccc(C(F)(F)F)c2)CC1 | 1 to 25% |
| Cc1cc(C2CCCN2c2cc(C(F)(F)F)nc3ncnn23)no1 (centres unmarked) | 1 to 25% |
| CCOC(=O)CCN(Cc1cccnc1)c1nc(C(F)(F)F)ccc1C#N | 1 to 25% |
| Cc1noc(CN(Cc2ccc(C#N)cc2)Cc2cccc(F)c2)n1 | 1 to 25% |
| Fc1ccccc1-c1csc(C2CN(Cc3ccccc3)CCO2)n1 (centres unmarked) | 1 to 25% |
| O=C(CCN1C(=O)NC2(CCCCC2)C1=O)Nc1nnc(-c2ccccn2)[nH]1 | 1 to 25% |
| CC(=O)Nc1ccc(C(F)(F)F)cc1NCc1nc(C)no1 | 1 to 25% |
| CCOC(=O)c1sc(N(C2CC2)S(=O)(=O)c2ccc(OC)c(C)c2)nc1C | 1 to 25% |
| Cc1cccc(OCCn2c(CN3CCCCC3)nc3ccccc32)c1C | 1 to 25% |
| CCCCCCNC(=O)c1cc(S(=O)(=O)N(C)C)ccc1N1CCOCC1 | 1 to 25% |
| CCOCc1c(C(=O)N(Cc2cccs2)Cc2ccccc2OC)oc2ccccc12 | 1 to 25% |
| Cc1nc(CNc2ccccc2Oc2cccc(F)c2)no1 | 1 to 25% |
| CC(=O)Nc1ccc(-c2nc(NC3CCCCC3)sc2C)cc1 | 1 to 25% |
| Cc1nc(-c2ccccn2)sc1C(=O)NCCNc1ncccn1 | 1 to 25% |
| Cc1ccc(-c2nnc(C(C)N3CCCc4ccccc43)o2)cc1 (centres unmarked) | 1 to 25% |
| CC(c1nc2ccccc2n1CCOc1ccccc1)N1CCCCC1 (centres unmarked) | 1 to 25% |
| CC1(C)NC(=O)N(CC(=O)Nc2nc(-c3ccccn3)cs2)C1=O | 1 to 25% |
| Cc1cccc(CN(Cc2ccccn2)Cc2ncc(C(C)(C)C)o2)c1 | 1 to 25% |
| CC(C)Cc1cc(C(=O)Nc2cc(-c3cccnc3)n[nH]2)[nH]n1 | 1 to 25% |
| COc1ccccc1CN(Cc1cccs1)C(=O)c1ccc(-c2nnn[nH]2)cc1 | 1 to 25% |
| CCc1cc(NNC(=O)C2CC2)nc(-c2ccccn2)n1 | 1 to 25% |

| SMILES | inhibition at 20 µM |
| --- | --- |
| CCCn1c(CNc2ccccc2OCCOC)nc2cc(S(=O)(=O)N(C)C)ccc21 | 1 to 25% |
| Cc1ccc(C)c(OCC(O)CN(c2nccs2)S(=O)(=O)c2ccccc2)c1 (centres unmarked) | 1 to 25% |
| Cc1ccc(CN(C(=O)c2cc(-c3ccccc3Cl)[nH]n2)C2CC2)o1 | 1 to 25% |
| CN(Cc1ccco1)C(=O)c1ccc(COc2ccccc2)o1 | 1 to 25% |
| O=C(c1nccc2ccccc12)N(Cc1nccn1C(F)F)C1CC1 | 1 to 25% |
| COc1cccc(OCCn2c(CN3CCOCC3)nc3ccccc32)c1 | 1 to 25% |
| N#Cc1ccccc1S(=O)(=O)NC(c1ccccc1)c1ccccn1 (centres unmarked) | 1 to 25% |
| CC(C)COC(C)c1noc(CN(Cc2ccccc2O)C(C)c2ccccc2)n1 (centres unmarked) | 1 to 25% |
| CN(Cc1ccc(C(F)(F)F)cc1)Cc1cc([N+](=O)[O-])cc2c1OCOC2 | 1 to 25% |
| CCOc1ccc(NC(=O)CN(C)Cc2coc(-c3ccc(C)cc3C)n2)cc1OCC | 1 to 25% |
| O=C(c1cc(-c2ccc(F)cc2)[nH]n1)N(Cc1ccco1)C1CCCC1 | 1 to 25% |
| CN(Cc1nnc(-c2ccccc2Cl)o1)Cc1ccccc1N1CCCC1 | 1 to 25% |
| COC(=O)CCN(Cc1cc(Br)cc(C(F)(F)F)c1)C1CCOCC1 | 1 to 25% |
| CC(C)N(Cc1ccccn1)Cc1nc2ccccc2n1C(F)F | 1 to 25% |
| Cc1noc(CN2CCOC(c3nc(-c4ccccc4)cs3)C2)n1 (centres unmarked) | 1 to 25% |
| CN(C)C(=O)CCN1CCOC(c2nc(-c3ccccc3)cs2)C1 (centres unmarked) | 1 to 25% |
| Cc1cccc(OC2CCN(c3nc(-c4ccccn4)nc4c3CCC4)CC2)n1 | 1 to 25% |
| CN(Cc1nnc(-c2ccccc2)o1)Cc1ccccc1N1CCCC1 | 1 to 25% |
| Cc1c(C(=O)N(c2ccccc2)C(C)C)cnn1-c1ccccn1 | 1 to 25% |
| Cc1csc(C2CN(Cc3ccn(C)c(=O)c3)CCO2)n1 (centres unmarked) | 1 to 25% |
| CC(c1nc(N)nc(N(C)C)n1)N1CCN(c2cccc(C(F)(F)F)c2)CC1 (centres unmarked) | 1 to 25% |
| O=c1[nH]c(-c2ccnc(Oc3ccccc3Cl)c2)nc2ccsc12 | 1 to 25% |
| CN(Cc1ccc(Br)cc1)Cc1ccc(C(=O)NCC(F)(F)F)cc1 | 1 to 25% |
| O=C(Nc1nc(-c2ccccn2)cs1)c1cc(F)cc(F)c1 | 1 to 25% |
| CS(=O)(=O)Nc1nc(-c2ccccn2)nc2scc(-c3ccccc3)c12 | 1 to 25% |
| COC(=O)c1ccc(C(=O)N2Cc3ccccc3C(c3ccccc3)C2)nc1 (centres unmarked) | 1 to 25% |
